Results on 16 compounds are retold here after US10947242B2, “[1,2,4]triazolo[1,5and#8208;A]pyrimidine compounds as PDE2 inhibitors” (Janssen Pharmaceutica NV, priority 2016, dated 2021).

Read-outs that look alike come from different tables or passages of the source.

In general, Emax refers to the size of the effect at its maximum, as opposed to the concentration needed.

Common to all, as to format: biochemical
Assay [1] concerns the target T1, Human recombinant PDE2A (hPDE2A) (Homo sapiens, UniProt O00408).
T1 construct: His tag (inferred from metal chelate purification); made in house; host or cells: Sf9 insect cells (baculovirus)
Briefly: In vitro assay PDE2A (SPA, 3H-cGMP hydrolysis). Conditions: for Emax: read-out: hPDE2A Emax.

Assay [2] concerns the target T2, Human recombinant PDE3A (hPDE3A) (Homo sapiens, UniProt Q14432).
T2 construct: purchased Scottish Biomedical; host or cells: Sf9 insect cells
Briefly: In vitro assay PDE3A (SPA, 3H-cAMP hydrolysis).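 As to all read-outs here: the method names PDE3A and the table heading PDE3B.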 Conditions: for IC50: hPDE3B pIC50, read-out: pIC50 (converted); for Emax: read-out: hPDE3B Emax, read-out: Emax. In a few lines:
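Human PDE3A, cloned from brain, as partially purified Sf9 lysate. Substrate 0.4 μM cAMP plus [3H]-cAMP (2.4 μCi/ml final) in 50 mM Tris pH 7.8, 8.3 mM MgCl2, 1.7 mM EGTA, 60 min at room temperature, 1% DMSO final. Hydrolysis read by SPA scintillation counting against no-enzyme blanks and DMSO controls.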

The target of assay [3] is T3, Human recombinant PDE10A (hPDE10A) (Homo sapiens, UniProt Q9Y233).
T3 construct: His tag (inferred from metal chelate purification); made in house; host or cells: Sf9 insect cells (baculovirus)
Briefly: In vitro assay PDE10A, human clone (SPA, 3H-cAMP hydrolysis). In a few lines:
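Human recombinant PDE10A was expressed in Sf9 cells via baculovirus and incubated with compound in 50 mM Tris pH 7.8, 8.3 mM MgCl2, 1.7 mM EGTA. Substrate was 60 nM cAMP plus 0.008 μCi 3H-cAMP for 60 min at room temperature, read by SPA scintillation counting. Controls used 1% DMSO, and blanks omitted enzyme.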

The mark [4] stands for this setting: human recombinant PDE2A, 10 μM cGMP substrate, read-out: hPDE2A pIC50 (converted).
Setting [5] is: read-out: hPDE2A pIC50 (converted).
Where [6] appears, read: human clone (h), default, read-out: hPDE10A2 Emax.
Setting [7] is: human clone (h), default, read-out: hPDE10A2 pIC50 (converted).
Setting [8] is: human clone by default (no (r) mark), read-out: hPDE10A2 or rPDE10A2 Emax.
Setting [9] is: human clone by default (no (r) mark), read-out: hPDE10A2 or rPDE10A2 pIC50 (converted).
[10] abbreviates: hPDE2A pIC50, human recombinant PDE2A, 10 μM cGMP substrate.

T2 sequence (Q14432 whole entry): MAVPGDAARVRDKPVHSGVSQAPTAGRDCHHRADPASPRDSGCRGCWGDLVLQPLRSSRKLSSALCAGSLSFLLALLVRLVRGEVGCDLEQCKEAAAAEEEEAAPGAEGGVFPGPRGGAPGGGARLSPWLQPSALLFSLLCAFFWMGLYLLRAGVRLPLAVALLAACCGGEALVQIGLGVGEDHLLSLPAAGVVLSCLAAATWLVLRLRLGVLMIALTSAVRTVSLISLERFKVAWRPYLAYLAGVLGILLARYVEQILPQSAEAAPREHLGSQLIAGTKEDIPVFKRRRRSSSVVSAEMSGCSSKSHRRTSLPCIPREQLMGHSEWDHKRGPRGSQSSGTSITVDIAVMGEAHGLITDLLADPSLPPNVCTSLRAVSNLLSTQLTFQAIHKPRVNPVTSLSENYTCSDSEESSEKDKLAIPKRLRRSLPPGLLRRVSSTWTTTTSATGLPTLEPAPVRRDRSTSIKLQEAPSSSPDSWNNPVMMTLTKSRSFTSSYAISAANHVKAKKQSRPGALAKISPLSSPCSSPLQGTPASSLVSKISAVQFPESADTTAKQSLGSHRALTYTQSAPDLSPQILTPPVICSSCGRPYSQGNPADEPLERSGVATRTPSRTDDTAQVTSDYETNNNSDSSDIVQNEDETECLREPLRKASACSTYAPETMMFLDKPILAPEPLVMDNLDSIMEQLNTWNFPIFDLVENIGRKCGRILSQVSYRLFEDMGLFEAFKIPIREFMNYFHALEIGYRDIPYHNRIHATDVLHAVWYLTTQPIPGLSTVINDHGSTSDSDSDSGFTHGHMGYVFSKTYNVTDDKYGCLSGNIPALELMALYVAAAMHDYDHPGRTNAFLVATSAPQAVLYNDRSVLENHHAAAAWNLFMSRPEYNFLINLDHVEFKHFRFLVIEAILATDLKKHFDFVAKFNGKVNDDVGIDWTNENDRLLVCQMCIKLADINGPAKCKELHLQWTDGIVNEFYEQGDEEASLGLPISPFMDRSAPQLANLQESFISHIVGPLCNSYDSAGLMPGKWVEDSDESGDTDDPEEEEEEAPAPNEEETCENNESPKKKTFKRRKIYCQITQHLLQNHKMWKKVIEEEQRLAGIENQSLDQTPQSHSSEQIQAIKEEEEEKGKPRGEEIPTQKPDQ
T1 sequence (O00408 whole entry): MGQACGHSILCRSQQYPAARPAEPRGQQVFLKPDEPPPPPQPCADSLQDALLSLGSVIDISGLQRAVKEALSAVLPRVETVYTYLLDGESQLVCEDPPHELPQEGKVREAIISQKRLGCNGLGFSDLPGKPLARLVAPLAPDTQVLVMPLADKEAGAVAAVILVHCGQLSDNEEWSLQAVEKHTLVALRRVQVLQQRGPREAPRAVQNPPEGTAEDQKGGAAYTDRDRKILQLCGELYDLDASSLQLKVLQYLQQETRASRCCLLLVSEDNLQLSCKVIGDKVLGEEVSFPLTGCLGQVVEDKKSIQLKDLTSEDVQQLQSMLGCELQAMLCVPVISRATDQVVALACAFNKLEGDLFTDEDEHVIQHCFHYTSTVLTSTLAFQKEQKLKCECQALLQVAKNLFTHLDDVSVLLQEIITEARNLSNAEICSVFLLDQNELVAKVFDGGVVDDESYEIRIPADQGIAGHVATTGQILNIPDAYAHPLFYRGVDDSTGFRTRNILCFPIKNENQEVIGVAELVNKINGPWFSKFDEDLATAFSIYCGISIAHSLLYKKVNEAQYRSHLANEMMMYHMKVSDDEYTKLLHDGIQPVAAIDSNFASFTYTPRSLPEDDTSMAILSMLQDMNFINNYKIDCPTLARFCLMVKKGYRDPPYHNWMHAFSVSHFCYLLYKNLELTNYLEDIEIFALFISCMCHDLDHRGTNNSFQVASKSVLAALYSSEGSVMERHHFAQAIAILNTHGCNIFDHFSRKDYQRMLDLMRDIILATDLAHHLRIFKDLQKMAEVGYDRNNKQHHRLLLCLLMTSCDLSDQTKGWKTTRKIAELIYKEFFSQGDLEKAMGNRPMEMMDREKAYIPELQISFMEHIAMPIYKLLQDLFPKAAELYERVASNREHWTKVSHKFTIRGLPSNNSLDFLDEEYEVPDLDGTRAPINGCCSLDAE
T3 sequence (Q9Y233 267-1055): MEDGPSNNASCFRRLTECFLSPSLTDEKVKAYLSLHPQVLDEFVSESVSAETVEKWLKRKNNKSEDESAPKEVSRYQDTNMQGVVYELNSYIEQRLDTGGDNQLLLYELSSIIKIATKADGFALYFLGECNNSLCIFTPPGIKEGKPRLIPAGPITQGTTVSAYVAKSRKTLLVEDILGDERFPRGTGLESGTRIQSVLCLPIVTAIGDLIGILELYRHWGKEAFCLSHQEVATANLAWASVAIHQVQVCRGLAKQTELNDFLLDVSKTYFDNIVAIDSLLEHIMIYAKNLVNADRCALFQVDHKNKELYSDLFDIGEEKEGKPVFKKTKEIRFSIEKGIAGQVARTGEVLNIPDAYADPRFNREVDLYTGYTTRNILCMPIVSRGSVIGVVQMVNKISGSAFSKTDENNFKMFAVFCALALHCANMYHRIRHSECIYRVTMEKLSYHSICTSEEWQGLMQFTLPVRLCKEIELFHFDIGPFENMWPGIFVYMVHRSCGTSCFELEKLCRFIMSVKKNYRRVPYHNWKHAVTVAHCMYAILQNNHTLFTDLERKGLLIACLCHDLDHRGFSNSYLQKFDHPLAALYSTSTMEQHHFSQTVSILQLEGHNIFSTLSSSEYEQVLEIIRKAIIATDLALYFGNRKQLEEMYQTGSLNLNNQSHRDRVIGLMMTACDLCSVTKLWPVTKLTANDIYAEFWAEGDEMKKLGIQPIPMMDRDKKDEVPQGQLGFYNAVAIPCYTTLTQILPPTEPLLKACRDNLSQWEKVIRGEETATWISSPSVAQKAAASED

As for `C[C@@H]1CCN(C(=O)c2cnn(C)c2)C[C@H]1c1cc(C(F)F)nc2ncnn12` [Compound 177], the IC50 in assay [1] (setting [4]) was 9.55 nM; in assay [1] (setting [5]), 9.55 nM; in assay [2] it was over 10000 nM; in assay [3] (setting [7]) it was 457 nM. The Emax in assay [1] (human recombinant PDE2A) amounted to 99%; in assay [1], 99%; in assay [2], 21%; in assay [3] (setting [6]) it was 93%.
On to `C[C@@H]1CCN(C(=O)c2cccc3c2ncn3C)C[C@H]1c1cc(C(F)F)nc2ncnn12` [Compound 178], for which the IC50 in assay [1] (setting [4]) is 13.5 nM; in assay [1] (setting [5]), 13.5 nM; in assay [2], 7410 nM; in assay [3] (setting [7]), 794 nM. The Emax in assay [1] (human recombinant PDE2A) came to 101%; in assay [1] it was 101%; in assay [2], 62%; in assay [3] (setting [6]) it was 92%.
On to `C[C@@H]1CCN(C(=O)c2cnc3n2CCCC3)C[C@H]1c1cc(C(F)F)nc2ncnn12` [Compound 179], for which the IC50 was 21.4 nM in assay [1] (setting [4]), 21.4 nM in assay [1] (setting [5]), over 10000 nM in assay [2] and 537 nM in assay [3] (setting [7]). The Emax in assay [1] (human recombinant PDE2A) came to 100%; in assay [1] it was 100%; in assay [2], 32%; in assay [3] (setting [6]), 90%.
For the compound `C[C@@H]1CCN(C(=O)c2ccc(Cl)s2)C[C@H]1c1cc(C(F)F)nc2ncnn12` [Compound 180], the IC50 in assay [1] (setting [4]) is 5.01 nM; in assay [1] (setting [5]), 5.01 nM; in assay [2], 5130 nM; in assay [3] (setting [7]) it was 174 nM. In addition, the Emax in assay [1] (human recombinant PDE2A) was determined as 100%; in assay [1], 100%; in assay [2], 66%; in assay [3] (setting [6]), 97%.
As to `C[C@@H]1CCN(C(=O)c2ccc(N)nc2)C[C@H]1c1cc(C(F)F)nc2ncnn12` [Compound 181], the IC50 in assay [1] (setting [4]) was 4.57 nM; in assay [1] (setting [5]), 4.57 nM; in assay [2], over 10000 nM; in assay [3] (setting [7]) it was 309 nM. The maximal response (Emax) came to 98% in assay [1] (human recombinant PDE2A), 98% in assay [1], 52% in assay [2] and 94% in assay [3] (setting [6]).
As for `C[C@@H]1CCN(C(=O)c2cnc(Br)s2)C[C@H]1c1cc(C(F)F)nc2ncnn12` [Compound 182], the IC50 in assay [1] (setting [4]) is 25.1 nM; in assay [1] (setting [5]), 25.1 nM; in assay [2], over 10000 nM; in assay [3] (setting [7]), 417 nM. Also, the maximal response (Emax) in assay [1] (human recombinant PDE2A) turned out to be 100%; in assay [1], 100%; in assay [2], 44%; in assay [3] (setting [6]) it was 95%.
For the compound `C[C@@H]1CCN(C(=O)c2cccc3ocnc23)C[C@H]1c1cc(C(F)F)nc2ncnn12` [Compound 183], the IC50 in assay [1] (setting [4]) is 26.3 nM; in assay [1] (setting [5]), 26.3 nM; in assay [2], over 10000 nM; in assay [3] (setting [7]), 2290 nM. For the same compound, the maximal response (Emax) in assay [1] (human recombinant PDE2A) is 99%; in assay [1], 99%; in assay [2], 36%; in assay [3] (setting [6]) it was 79%.
With `COc1nc(C)c(C(=O)N2CC[C@@H](C)[C@H](c3cc(C(F)F)nc4ncnn34)C2)s1` [Compound 185], the values for the maximum response (Emax) in assay [1], in assay [2] and in assay [3] (setting [6]) were 98%, 79% and 87%, respectively. Moreover, the IC50 was 21.9 nM in assay [1] (setting [5]), 3310 nM in assay [2] and 1200 nM in assay [3] (setting [7]).
In the case of `Cc1nn(C)cc1C(=O)N1CC[C@@H](C)[C@H](c2cc(C(F)F)nc3ncnn23)C1` [Compound 198], the IC50 in assay [1] (setting [4]) was 5.62 nM; in assay [1] (setting [5]), 5.62 nM; in assay [2], over 10000 nM; in assay [3] (setting [7]), 417 nM. Further, the maximal effect (Emax) was 98% in assay [1] (human recombinant PDE2A), 98% in assay [1], 35% in assay [2] and 91% in assay [3] (setting [6]).
Take `Cc1cc([C@H]2CN(C(=O)c3ccc4nccn4c3)CC[C@@H]2C)n2ncnc2n1` [Compound 216]: the IC50 in assay [1] (setting [4]) is 437 nM; in assay [1] (setting [5]), 437 nM; in assay [2], over 10000 nM; in assay [3] (setting [7]) it was 4470 nM; in assay [3] (setting [9]), 4470 nM. Moreover, the Emax in assay [1] (human recombinant PDE2A) was determined as 98%; in assay [1], 98%; in assay [2], 26%; in assay [3] (setting [6]) it was 67%; in assay [3] (setting [8]), 67%.
Turning to `Cc1cc([C@H]2CN(C(=O)c3cc(C)c(F)c(C)c3)CC[C@@H]2C)n2ncnc2n1` [Compound 217], the IC50 in assay [1] (hPDE2A pIC50) was 562 nM; in assay [1] (setting [10]), 562 nM; in assay [2], over 10000 nM; in assay [3] (setting [7]) it was 4790 nM; in assay [3] (setting [9]), 4790 nM. In addition, the maximum response (Emax) in assay [1] was 99%; in assay [2] it was 37%; in assay [3] (setting [6]), 72%; in assay [3] (setting [8]), 72%.
For `Cc1cc([C@H]2CN(C(=O)c3cc(C)c(Cl)c(C)c3)CC[C@@H]2C)n2ncnc2n1` [Compound 218], the IC50 in assay [1] (hPDE2A pIC50) was 204 nM; in assay [1] (setting [10]), 204 nM; in assay [2], over 10000 nM; in assay [3] (setting [7]), 2240 nM; in assay [3] (setting [9]), 2240 nM. In addition, the maximal effect (Emax) in assay [1] was 100%; in assay [2], 51%; in assay [3] (setting [6]) it was 85%; in assay [3] (setting [8]), 85%.
On to `Cc1ccc(F)c(C(=O)N2CC[C@@H](C)[C@@H](c3cc(C(F)F)nc4ncnn34)C2)n1` [Compound 222], for which the IC50 is 282 nM in assay [1] (setting [4]); 282 nM in assay [1] (setting [5]); over 10000 nM in assay [2]; 6760 nM in assay [3] (setting [7]); 6760 nM in assay [3] (setting [9]). For the same compound, the maximal effect (Emax) in assay [1] (human recombinant PDE2A) worked out at 98%; in assay [1], 98%; in assay [2] it was 13%; in assay [3] (setting [6]), 59%; in assay [3] (setting [8]) it was 59%.
Take `C[C@@H]1CCN(C(=O)c2ccc(C3CC3)c(C3CC3)c2)C[C@H]1c1cc(C(F)F)nc2ncnn12` [Compound 226]: the IC50 in assay [1] (setting [4]) is 0.871 nM; in assay [1] (setting [5]), 0.871 nM; in assay [2], 129 nM; in assay [3] (setting [7]), 81.3 nM; in assay [3] (setting [9]), 81.3 nM. Further, the maximal response (Emax) in assay [1] (human recombinant PDE2A), in assay [1], in assay [2], in assay [3] (setting [6]) and in assay [3] (setting [8]) was 100% throughout.
`Cc1cccnc1C(=O)N1CC[C@@H](C)[C@H](c2cc(C(F)F)nc3ncnn23)C1` [Compound 229]: the IC50 is 562 nM in assay [1] (setting [4]); 562 nM in assay [1] (setting [5]); over 10000 nM in assay [2]; over 10000 nM in assay [3] (setting [7]); over 10000 nM in assay [3] (setting [9]). Further, the Emax in assay [1] (human recombinant PDE2A) was 95%; in assay [1], 95%; in assay [2], 18%; in assay [3] (setting [6]), 33%; in assay [3] (setting [8]), 33%.
`Cc1cc([C@@H]2CC[C@@H]3CC[C@H]2N3C(=O)c2ccc3ncsc3c2)n2ncnc2n1` [Compound 230]: the IC50 in assay [1] (setting [4]) was 1020 nM; in assay [1] (setting [5]), 1020 nM; in assay [2], over 10000 nM; in assay [3] (setting [7]) it was 5370 nM; in assay [3] (setting [9]), 5370 nM. The Emax was determined as 93% in assay [1] (human recombinant PDE2A); 93% in assay [1]; 40% in assay [2]; 65% in assay [3] (setting [6]); 65% in assay [3] (setting [8]).
